{"source": "patent US7943664B2", "about": "“Phosphate binding materials and their uses” (Medical Research Council, priority 2008, dated 2011)", "key": {"[1]": {"assay": "In vitro phosphate binding at physiological concentration", "format": "physicochemical", "procedure": "An exemplary assay for determining phosphate binding is reported in the example 2.1 in which equal masses of ferrihydrite (e.g. 53.6 mg), or indeed any other binder used as a comparison, and a phosphate binder of the present invention were assayed to determine the percentage of phosphate they are capable of binding under physiological conditions. In general, the mass of the materials used in the assay may be between 10 mg and 80 mg inclusive in a 20 mL assay. […]\nA solution containing 10 mM phosphate, a physiologically relevant concentration, and 0.9% NaCl was adjusted to pH 3, pH 5 and finally pH 7. […] The percentage of phosphate binding was calculated according to: Phosphate binding=(1−([P]t0−[P]ti)/[P]ti)×100 […]\nIron and phosphorus contents of solutions or solids (including wet solids) were measured using a JY2000-2 ICPOES (Horiba Jobin Yvon Ltd., Stanmore, U.K.) at the iron specific wavelength of 259.940 nm, and at the phosphorus wavelengths of 177.440 and/or 214.914 nm. […] The percentage of iron in solution or solid phase was determined by the difference between the starting iron content and either the iron in the soluble phase or the iron in the solid phase depending on the assay. […]"}, "[2]": {"assay": "Langmuir isotherms, determination of affinity and capacity", "format": "physicochemical", "conditions": "Langmuir isotherm at pH 5, 10 mM phosphate, 0.9% NaCl, binder mass 13.4-80.4 mg", "procedure": "The Langmuir isotherms were obtained using the same methodology as in Autissier et al. (2007), except in vitro solutions also contained 0.9% NaCl to make the assay better simulate physiological conditions. These Langmuir isotherms were generated at pH 5 and experimental conditions were similar to those in “Phosphate binding at physiological concentration” except the mass of binders was varied from 13.4-80.4 mg.\nWe further compared the phosphate binding abilities of FeOH Ad100, FeOH Ad100 SiO2, and lanthanum using Langmuir isotherms. The Langmuir equation relates the adsorption of molecules on a solid surface to a concentration and was adapted to determine the affinity and capacity of the above noted phosphate binders:\nC=concentration of adsorbate unbound in mM\nCad/m=mmol of adsorbate bound per g binder\nIt was not possible to determine these values for Renagel because its low affinity required a higher concentration of phosphate than the physiologically relevant concentration (10 mM) that was tested in this experiment. Langmuir isotherms were generated at pH 5 and experimental conditions were similar to those in FIGS. 2a/b, except the mass of binders was varied from 13.4-80.4 mg."}}, "data": [{"molecule": "O=C([O-])[O-].O=C([O-])[O-].O=C([O-])[O-].[La+3].[La+3]", "note": "[Lanthanum Carbonate, Lanthanum carbonate]", "values": [{"measurement": "phosphate binding", "setting": "[1]; 20 mL 10 mM phosphate, 0.9% NaCl, 54 mg (53.6 mg) binder, pH 3 for 60 min then pH 5 for 60 min, sequentially (FIG. 2a/b)", "result": "70-85%"}, {"measurement": "phosphate binding", "setting": "[1]; binder exposed directly to the solution at pH 5 for 1 hour, without pre-conditioning at pH 3 (FIG. 3)", "result": "≈ 30%"}, {"measurement": "K1 (Affinity)", "setting": "[2]", "result": 1.6}, {"measurement": "K2 (Capacity)", "setting": "[2]; unit printed for K2, not in the table", "result": 1.0, "unit": "mmol P/g binder"}]}]}
